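Results reflect a 48-hour exposure of cells in 96-well plates to compound at five concentrations. TGI marks complete inhibition of growth.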
Columns and labels:
Experiment in all cases: inhibition of tumour cell growth, NCI panel, 48 h
U251 CNS = system: U251 CNS
786-0 renal = system: 786-0 renal
CCRF-CEM leukemia = system: CCRF-CEM leukemia
OVCAR-4 ovarian = system: OVCAR-4 ovarian
UACC-257 melanoma = system: UACC-257 melanoma
NCI-H226 lung = system: NCI-H226 lung
UACC-62 melanoma = system: UACC-62 melanoma
HCC-2998 colon = system: HCC-2998 colon
A498 renal = system: A498 renal
K-562 leukemia = system: K-562 leukemia
KM12 colon = system: KM12 colon
OVCAR-8 ovarian = system: OVCAR-8 ovarian
HT29 colon = system: HT29 colon
EKVX NSCLC = system: EKVX NSCLC
DU-145 prostate = system: DU-145 prostate
HOP-62 NSCLC = system: HOP-62 NSCLC
HCT-116 colon = system: HCT-116 colon
MCF7 breast = system: MCF7 breast
SK-MEL-5 melanoma = system: SK-MEL-5 melanoma

Structure (SMILES)	TGI (U251 CNS) [µM]	TGI (786-0 renal) [µM]	TGI (CCRF-CEM leukemia) [µM]	TGI (OVCAR-4 ovarian) [µM]	TGI (UACC-257 melanoma) [µM]	TGI (NCI-H226 lung) [µM]	TGI (UACC-62 melanoma) [µM]	TGI (HCC-2998 colon) [µM]	TGI (A498 renal) [µM]	TGI (K-562 leukemia) [µM]	TGI (KM12 colon) [µM]	TGI (OVCAR-8 ovarian) [µM]	TGI (HT29 colon) [µM]	TGI (EKVX NSCLC) [µM]	TGI (DU-145 prostate) [µM]	TGI (HOP-62 NSCLC) [µM]	TGI (HCT-116 colon) [µM]	TGI (MCF7 breast) [µM]	TGI (SK-MEL-5 melanoma) [µM]
COC(=O)C(Cc1c[nH]c2ccccc12)NC(=O)c1ccc(-c2ccc(Cl)cc2Cl)o1 (centres undefined)	> 100	> 100	> 100	> 100	99.3	> 100	> 100	48.5	67.9	> 100	> 100	> 100	> 100	> 100	> 100	> 100	> 100	> 100	
CC[C@@]1(C)CCC2c3ccc(O)cc3CC[C@H]2C1C (some centres undefined)	30.9	29.8	33.4	35.7	29.3		28.4	27.1	34	23.3	36.7	33.8	34.1	34	30.4	33	31.9	30.3	30.7
CCOC(=O)c1cc2/c(=C\c3ccc(N(C)C)cc3)c3ccccc3n2[n+]1C	11.8	15	> 24.6	13.7	11.8	24.6	14.2	10	27.7	> 58	1.4	36.1	12.7	21.5	17.4		11.1	27.9	4.04
COC(=O)c1cc(C(=CCC[C@H]2CC[C@@]3(C)C(CCC4C3CC[C@@]3(C)C4CC[C@@H]3C(C)CCCC(C)C)C2)c2cc(Cl)c(O)c(C(=O)OC)c2)cc(Cl)c1O (some centres undefined)	> 10	> 10	> 10	> 10	> 10	> 10	> 10	> 10		> 10	> 10	> 10	> 10	> 10	> 10	> 10	> 10	> 10	> 10
N#Cc1c(N2CCC(O)C2)c2ccccc2n2c1nc1ccccc12 (centres undefined)		50.6	> 100	> 100	> 100		> 100	> 100	95.5		> 100	> 100	> 100	> 100	> 100	46.6	> 100	> 100	> 100
COc1ccc(/C=C2\CCS(=O)(=O)c3ccccc3C2=O)cc1	37.7	34.6	68.5	58.8	56.5	62.8	42.4	38.6	37.1	> 100	31	53.4	35.9	46.4	61	> 100	31.2	> 100	
CCOC(=O)C1=CCOc2cc(N(C)C)ccc21	> 100	> 100	64		> 100	> 100	> 100	> 100	> 100	> 100	> 100	> 100	> 100	> 100	> 100	> 100	> 100	> 100	> 100

Source: PubChem BioAssay (NCI)
